# Structures can show the parent of a compound that is named as a salt. Where two headings read alike, the source gives them in different places.
# Assays:
# Acetylcholinesterase = molecular target: T1, Acetylcholinesterase (Rattus norvegicus, UniProt P37136); assay: Acetylcholinesterase inhibiting activity using (acetyl-[3H])-acetylcholine, S1 fraction of rat cerebral cortex homogenate; format: biochemical, male Wistar rat
# T1 construct: the S1 fraction of a male Wistar rat cerebral cortex homogenate was used as a cholinesterase source; from tissue; host or cells: male Wistar rat cerebral cortex homogenate, S1 fraction
# T1 sequence (P37136 32-614): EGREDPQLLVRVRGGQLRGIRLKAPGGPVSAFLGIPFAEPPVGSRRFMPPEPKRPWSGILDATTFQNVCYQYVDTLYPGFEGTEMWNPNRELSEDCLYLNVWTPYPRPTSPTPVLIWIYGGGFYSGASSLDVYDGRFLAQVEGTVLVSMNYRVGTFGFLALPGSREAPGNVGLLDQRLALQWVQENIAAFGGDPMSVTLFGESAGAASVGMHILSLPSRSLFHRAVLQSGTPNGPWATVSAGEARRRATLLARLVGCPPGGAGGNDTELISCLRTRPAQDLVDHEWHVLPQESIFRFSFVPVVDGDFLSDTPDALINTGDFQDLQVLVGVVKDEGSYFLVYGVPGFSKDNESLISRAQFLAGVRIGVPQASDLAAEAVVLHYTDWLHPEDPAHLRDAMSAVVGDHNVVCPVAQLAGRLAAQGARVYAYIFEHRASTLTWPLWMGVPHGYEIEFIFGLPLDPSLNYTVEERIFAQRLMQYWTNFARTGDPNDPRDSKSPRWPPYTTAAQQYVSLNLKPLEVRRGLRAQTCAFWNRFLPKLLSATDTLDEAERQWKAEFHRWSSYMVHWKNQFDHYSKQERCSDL
# Experimental: The compounds according to the invention were examined for cholinesterase inhibiting activity using (acetyl-[^3 H])-acetylcholine. Thus, the S1 fraction of a male Wistar rat cerebral cortex homogenate was used as a cholinesterase source, and (acetyl-[^3 H])-acetylcholine (as substrate) and each test compound according to the invention were added and, after 30 minutes of incubation, the reaction was terminated. A toluene type scintillator was added, and the mixture was shaken, whereby the reaction product [^3 H]-acetic acid was transferred to the toluene layer. The cholinesterase activity was determined by counting said [^3 H]-acetic acid with a liquid scintillation counter.
# The cholinesterase inhibiting activity of each test compound was expressed in terms of 50% inhibitory concentration (IC50).
# [1] = system: CO2-induced ammesia in mice; assay: Nootropic action: effect on CO2-induced amnesia in mice (passive avoidance response); format: in vivo, mice (male ICR); settings: i.p., 30 min before the test, saline = 100, ** p < 0.01
# Experimental: Effect of the compounds (I) and (II) on impairment of passive avoidance response, induced by exposing mice to 100% CO2 gas, was evaluated. Male ICR mice (Japan Clea) aged 5 weeks were used. The experimental apparatus consisted of two compartments, and one illuminated chamber (9×9×25 cm) was connected to dark chamber (25×25×30 cm) with a guillotine door. Each mouse was placed in the illuminated compartment and then allowed to enter the dark one. When the mouse entered the dark chamber, the door was closed and AC 0.5 mA footshock was applied to the floor grid of the dark chamber. The mouse can memorize the experience receiving the uncomfortable stimulus for a few weeks. Next, the consolidation processes of memory were disturbed by an experimental manipulation: Each mouse was placed under the hypoxic condition by being placed into a 4l desiccator filled with 100% CO2 gas, immediately after receiving the footshock in the dark chamber. When his respiratory function was stopped, the mouse was taken out from the desiccator and given artificial respiration till recovering spontaneous respiration. This procedure disturbed the consolidation of the memory (experience of footshock). On the next day, a retention test was performed whether the mouse memorizes the footshock or not. In the test, the mouse was again placed in the illuminated compartment and the latency to enter the dark compartment was measured.
# The mice subjected to hypoxia entered the dark compartment with short latency, 10-20 sec. […] The ameliorating effect of compounds on the amnesia induced by hypoxia was evaluated by the latency time, and was expressed as the percent change of the mean time of the vehicle-treated control group (Table 5.). The compounds were suspended in 5% arabic gum solution, and administered intraperitoneally (i.p.) 30 min. before the test.
# mice = assay: General symptoms in mice (salivation, lachrymation, hypothermia); format: in vivo; set-up: key: +++: marked; ++: moderate; +: mild; non-detected; settings: 100 mg/kg orally; observed for 4 hours
# Experimental: Four mice were used for each group. Mice were placed in stainless steel cages (13×18×25 cm) and after a 1-hr habituation period the compounds were administered. […] Peripheral and central effects of the compounds were estimated with the incidences of salivation and lachrymation, and a grade of hypothermia, respectively.
# The compounds which were soluble in saline were dissolved in saline and the others were suspended in 5% arabic gum solution. Each compound was administered orally (100 mg/kg).
# Scorings of the symptoms were made as follows.
# LD50 value, oral, mice = settings: mouse, in vivo, p.o., ten mice per group
# Excerpt: LD50 value Ten mice were used for each group. LD50 value was estimated with the dose (mg/kg, p.o.) which induced death in 50% of mice.
# [2] = rat cerebral cortex homogenate S1 fraction, 30 minutes of incubation, read-out: Acetylcholinesterase inhibiting activity IC50
SMILES,IC50 (Acetylcholinesterase; [2]) [nM],also measured
CCN(CCCCCN1C(=O)c2ccc([N+](=O)[O-])cc2C1=O)Cc1ccccc1 [Compound 2-8],150,"Anti-amnesia (latency, percent change of the mean time of the vehicle-treated control group) ([1]; 3 mg/kg): 326%; Hypothermia (mice): +; Lachrymation (mice): ++; Salivation (mice): +; LD50 (LD50 value, oral, mice): 300 mg/kg"
CCN(CCCCCN1C(=O)c2ccc(NC(C)=O)cc2C1=O)Cc1ccccc1 [Compound 11-1],,"IC50 (Acetylcholinesterase): 320 nM; Anti-amnesia (latency, percent change of the mean time of the vehicle-treated control group) ([1]; 1 mg/kg): 455%; Hypothermia (mice): +; Lachrymation (mice): ++; Salivation (mice): -; LD50 (LD50 value, oral, mice): > 300 mg/kg"
"CC(=O)N(CCCCN(C)Cc1ccccc1)C(=O)/C=C/c1ccc([N+](=O)[O-])cc1 [Compound 15, (E)-N-Acetyl-N-[4-(N-methyl-N-benzyl)aminobutyl]-3-(4-nitrophenyl)-2-propenamide hydrochloride]",19000,
CCN(CCCCN(C(C)=O)C(=O)/C=C/c1ccc([N+](=O)[O-])cc1)Cc1ccccc1 [Compound 16-1],7300,
CCN(CCCCCN(C(C)=O)C(=O)/C=C/c1ccc([N+](=O)[O-])cc1)Cc1ccccc1 [Compound 16-2],560,
CCN(CCCCCCN(C(C)=O)C(=O)/C=C/c1ccc([N+](=O)[O-])cc1)Cc1ccccc1 [Compound 16-3],3000,
CCN(CCCCCN(C(C)=O)C(=O)/C=C/c1cccc([N+](=O)[O-])c1)Cc1ccccc1 [Compound 16-4],530,
CCN(CCCCCN(C(C)=O)C(=O)/C=C/c1ccc(Cl)cc1)Cc1ccccc1 [Compound 16-5],2200,
CCN(CCCCCN(C(C)=O)C(=O)/C=C/c1ccc(C#N)cc1)Cc1ccccc1 [Compound 16-6],460,
CCN(CCCCCN(C(C)=O)C(=O)/C=C/c1cccc(OC)c1)Cc1ccccc1 [Compound 16-7],5800,
CCN(CCCCCN(C(C)=O)C(=O)/C=C/c1ccc(S(C)(=O)=O)cc1)Cc1ccccc1 [Compound 16-8],170,
CCN(CCCCCN(C(C)=O)C(=O)/C=C/c1ccc([N+](=O)[O-])c(O)c1)Cc1ccccc1 [Compound 16-9],350,
CCN(CCCCCN(C(C)=O)C(=O)/C=C/c1ccc([N+](=O)[O-])c(OC(C)=O)c1)Cc1ccccc1 [Compound 16-10],280,
CCN(CCCCCN(C(C)=O)C(=O)/C=C/c1ccc(Cl)c([N+](=O)[O-])c1)Cc1ccccc1 [Compound 16-11],410,
"CCOC(=O)c1ccc2c(c1)C(=O)N(CCCCCN(CC)Cc1ccccc1)C2=O [Compound 17, Ethyl 2-[5-(N-benzyl-N-ethyl)aminopentyl]-1,3(2H)-dioxo-1H-isoindole-5-carboxylate.hydrochloride]",680,
CCN(CCCCCNC(=O)/C=C/c1ccc(Cl)c([N+](=O)[O-])c1)Cc1ccccc1OC [Compound 18-1],220,
CCN(CCCCCNC(=O)/C=C/c1ccc([N+](=O)[O-])cc1)Cc1ccccc1OC [Compound 18-2],290,
CCN(CCCCCNC(=O)/C=C/c1ccc(S(C)(=O)=O)cc1)Cc1ccccc1OC [Compound 18-3],230,
CCN(CCCCCNC(=O)/C=C/c1ccc(C#N)cc1)Cc1ccccc1OC [Compound 18-4],370,
CCN(CCCCCNC(=O)/C=C/c1ccc(OC)c(OC)c1)Cc1ccccc1OC [Compound 18-5],430,
CCC(=O)N(CCCCCN(CC)Cc1ccccc1)C(=O)/C=C/c1ccc([N+](=O)[O-])cc1 [Compound 19-1],4300,
CCN(CCCCCNC(=O)/C=C/c1cccc(N)c1)Cc1ccccc1 [Compound 20-1],19000,
CCN(CCCCCN(C(C)=O)C(=O)/C=C/c1cccc(N)c1)Cc1ccccc1 [Compound 20-2],2400,
CCN(CCCCCNC(=O)/C=C/c1ccc(N)cc1)Cc1ccccc1 [Compound 20-3],10000,
CCN(CCCCCN(C(C)=O)C(=O)/C=C/c1cccc(NC(C)=O)c1)Cc1ccccc1 [Compound 21-1],1800,
CCN(CCCCCNC(=O)/C=C/c1ccc(NC(C)=O)cc1)Cc1ccccc1 [Compound 21-2],5700,
"CNC(=O)Oc1ccc2c(c1)[C@]1(C)CCN(C)[C@@H]1N2C [Physostigmine, physostigmine, reference compound]",,"Anti-amnesia (latency, percent change of the mean time of the vehicle-treated control group) ([1]; 0.3 mg/kg): 210%; LD50 (LD50 value, oral, mice): 2.6 mg/kg"
